# Marks after values point to notes of the source that are not given here.
# Tested on: T-iPS-T cells
# Assay: Number of viable T-iPS-T cells under feeder-free culture (CD3/CD28 Dynabeads, Cell Count Reagent SF, absorbance 450 nm/650 nm)
# Type: cell-based, human
# Conditions: T-iPS-T cells after 1st expansion, 6 days, DMSO control 0.225 ± 0.017
# Method: T-iPS-T cells (1,500 cells/well) after 1st expansion were seeded and cultured in RPMI-1640 medium (SIGMA, R8758) supplemented with 15% FBS (CORNING, 35-076-CV, 35076104R), 1% PSG (SIGMA, G1146), PAA (50 μg/mL, Nacalai Tesque, 03420-52), ITS-G, IL-7 (5 ng/mL), IL-12 (50 ng/mL), IL-15 (5 ng/mL), IL-18 (50 ng/mL), IL-21 (20 ng/mL), and z-VAD-fmk (10 μM). The cells were stimulated by adding CD3/CD28 Dynabeads (Gibco, 11131D, the “Dynabeads” is a registered trademark) (4,500 beads/well) thereto, and 1,080 compounds [MedChemExpress, Apoptosis Compound Library (HY-L003), Cell Cycle/DNA Damage Compound Library (HY-L004), JAK/STAT Compound Library (HY-L008), MAPK Compound Library (HY-L010), NF-kappaB Compound Library (HY-L014), PI3K/Akt/mTOR Compound Library (HY-L015), and Wnt/Hedgehog/Notch Compound Library (HY-L020)] were added thereto (one type per well) at a final concentration of 1 μM, and then, the cells were cultured at 37° C. under 5% CO2.
# DMSO (0.1%) that is a solvent for the compound was used as a control. After 6 days, the number of viable cells was measured using Cell Count Reagent SF (Nacalai Tesque, 07553) and a microplate reader (SoftMax Pro 5.X, Molecular Devices, 450 nm/650 nm).
# A calibration curve for cell number was set as follows. When measuring the number of viable cells, 12-point serial dilution was performed for the same cells as those used in the screening, and the cells were seeded (0 to 1,536,000 cells/well) in RPMI-1640 medium supplemented with 15% FBS, 1% PSG, PAA, ITS-G, IL-7 (5 ng/mL) and IL-15 (5 ng/mL). The number of viable cells was measured together with the screening samples, and a calibration curve for WST-8 assay was formed.
# In order to further evaluate the results obtained in Example 4, reproducibility was evaluated. As a method therefor, the same method as in Example 4 was used to carry out culturing and evaluation. As compounds, 20 compounds were selected and used among the compounds used in Example 4 including berbamine, and DMSO (0.1%) that is a solvent for the compound was used as a control. Note that in a statistical analysis, a Student's t-test was used (*: p<0.05).
# The effect of a berbamine derivative on the proliferation of T cells was verified. As a method therefor, T-iPS-T cells after 1st expansion were cultured in the same manner as in Example 4, and berbamine (BBM) or each of 13 types of derivatives [BBMD1 to 13, Hebei Sundia MediTech Company Ltd.] was added thereto (one type per well) at a final concentration of 0.1 nM, 1 nM, 10 nM, 100 nM, or 1 μM, and then, the cells were cultured at 37° C. under 5% CO2. DMSO (0.1%) that is a solvent for the compound was used as a control.
# After culturing for 6 days, the number of viable cells was measured using Cell Count Reagent SF (Nacalai Tesque, 07553) and a microplate reader (SoftMax Pro 5. X, Molecular Devices, 450 nm/650 nm), and the OD value was used as data. Note that in a statistical analysis, a Student's t-test was used (*: p<0.05). 1.
SMILES,number of viable cells (OD value) (0.1 nM),number of viable cells (OD value) (1 nM),number of viable cells (OD value) (10 nM),number of viable cells (OD value) (100 nM),number of viable cells (OD value) (1 μM)
COc1cc2c3cc1Oc1c(OC)c(OC)cc4c1C(Cc1ccc(OS(=O)(=O)c5ccccc5)c(c1)Oc1ccc(cc1)CC3N(C)CC2)N(C)CC4 (stereo not shown) [BBMD1],0.257 ± 0.024,0.268 ± 0.009 *,0.289 ± 0.033 *,0.415 ± 0.039 **,0.529 ± 0.101 **
COc1cc2c3cc1Oc1c(OC)c(OC)cc4c1C(Cc1ccc(OCCCNC(=O)c5cscn5)c(c1)Oc1ccc(cc1)CC3N(C)CC2)N(C)CC4 (stereo not shown) [BBMD12],0.185 ± 0.072,0.234 ± 0.027,0.235 ± 0.010^,0.257 ± 0.008 *,0.561 ± 0.035 ***
COc1cc2c3cc1Oc1c(OC)c(OC)cc4c1C(Cc1ccc(OC(=O)CCNC(=O)OC(C)(C)C)c(c1)Oc1ccc(cc1)CC3N(C)CC2)N(C)CC4 (stereo not shown) [BBMD8],0.268 ± 0.022 *,0.227 ± 0.028,0.261 ± 0.029^,0.326 ± 0.051 *,0.462 ± 0.027 ***
COc1cc2c3cc1Oc1c(OC)c(OC)cc4c1C(Cc1ccc(OC(=O)c5ccccc5)c(c1)Oc1ccc(cc1)CC3N(C)CC2)N(C)CC4 (stereo not shown) [BBMD13],0.253 ± 0.022,0.292 ± 0.001 **,0.260 ± 0.011 *,0.412 ± 0.085 *,0.288 ± 0.041
COc1ccc(C(=O)NCCCOc2ccc3cc2Oc2ccc(cc2)CC2c4cc(c(OC)cc4CCN2C)Oc2c(OC)c(OC)cc4c2C(C3)N(C)CC4)cc1 (stereo not shown) [BBMD10],0.255 ± 0.013,0.274 ± 0.007 **,0.295 ± 0.023 *,0.494 ± 0.038 ***,0.301 ± 0.008 **
COc1cc2c3cc1Oc1c(OC)c(OC)cc4c1C(Cc1ccc(OCc5ccc([N+](=O)[O-])cc5)c(c1)Oc1ccc(cc1)CC3N(C)CC2)N(C)CC4 (stereo not shown) [BBMD3],0.245 ± 0.013,0.298 ± 0.021 *,0.325 ± 0.077^,0.581 ± 0.025 ****,0.195 ± 0.002
COc1cc2c3cc1Oc1c(OC)c(OC)cc4c1C(Cc1ccc(CCCCN5CCCC5)c(c1)Oc1ccc(cc1)CC3N(C)CC2)N(C)CC4 (stereo not shown) [BBMD7],0.230 ± 0.018,0.266 ± 0.013 *,0.258 ± 0.024^,0.346 ± 0.041 **,0.550 ± 0.026 ****
COc1cc2c3cc1Oc1c(OC)c(OC)cc4c1C(Cc1ccc(OCCCN)c(c1)Oc1ccc(cc1)CC3N(C)CC2)N(C)CC4 (stereo not shown) [BBMD9],0.264 ± 0.030,0.255 ± 0.004 *,0.221 ± 0.017^,0.268 ± 0.020 *,0.328 ± 0.016**
COc1cc2c3cc1Oc1c(OC)c(OC)cc4c1C(Cc1ccc(CCCCBr)c(c1)Oc1ccc(cc1)CC3N(C)CC2)N(C)CC4 (stereo not shown) [BBMD2],,0.269 ± 0.059,0.295 ± 0.028 *,0.437 ± 0.059 **,0.493 ± 0.036 ***
COc1cc2c3cc1Oc1c(OC)c(OC)cc4c1C(Cc1ccc(OC(=O)c5cc6ccccc6[nH]5)c(c1)Oc1ccc(cc1)CC3N(C)CC2)N(C)CC4 (stereo not shown) [BBMD5],0.246 ± 0.001,0.245 ± 0.016,0.285 ± 0.032 *,0.477 ± 0.064 **,0.186 ± 0.001
COc1cc2c3cc1Oc1c(OC)c(OC)cc4c1C(Cc1ccc(OC(=O)C(C)(C)C)c(c1)Oc1ccc(cc1)CC3N(C)CC2)N(C)CC4 (stereo not shown) [BBMD4],0.234 ± 0.024,0.245 ± 0.037,0.286 ± 0.019 *,0.470 ± 0.023 ***,0.470 ± 0.053 **
COc1cc2c3cc1Oc1c(OC)c(OC)cc4c1C(Cc1ccc(OC(=O)c5ccc(Br)cc5)c(c1)Oc1ccc(cc1)CC3N(C)CC2)N(C)CC4 (stereo not shown) [BBMD6],0.248 ± 0.019,0.248 ± 0.016,0.290 ± 0.023 *,0.472 ± 0.077 **,0.208 ± 0.004
COc1cc2c3cc1Oc1c(OC)c(OC)cc4c1C(Cc1ccc(OCCCNC(=O)c5ccc(-c6ccc(C=O)cc6)cc5)c(c1)Oc1ccc(cc1)CC3N(C)CC2)N(C)CC4 (stereo not shown) [BBMD11],0.270 ± 0.099,0.242 ± 0.046,0.300 ± 0.081^,0.425 ± 0.079 *,0.239 ± 0.076

# Source: US12168781B2, “Production method for T cells or NK cells, medium for culturing T cells or NK cells, method for culturing T cells or NK cells, method for maintaining undifferentiated state of undifferentiated T cells, and growth-accelerating agent for T cells or NK cells” (KIRIN HOLDINGS KABUSHIKI KAISHA, priority 2018, dated 2024)
